Experimental findings from US20260226034A1 (The Rockefeller University, priority 2023, published 2026) are described below.

The test deals with NSP14 (Severe acute respiratory syndrome coronavirus 2, UniProt P0DTD1). Nature of the test: NSP14 MTase inhibition assay at 37° C. (MTase-Glo SAH detection). Conditions: 0.3 nM NSP14, 2.5 μM SAM, 2.5 μM GpppA RNA, read-out: Nsp14 Mtase Inh. IC50. Type of test: biochemical, SARS-CoV-2. The procedure: NSP14 MTase assay at 37° C. (0.3 nM NSP14 as final enzyme concentration)
The NSP14 MTase assay at 37° C. is carried out in 384-well flat bottom polystyrene microplates (Greiner, 781075). Per well, 10 μl of 1×NSP14 reaction buffer (50 mM Tris-HCl, pH 7.5, 6 mM KCl, 1.25 mM MgCl2, 1 mM DTT, and 0.01% Tween-20) are dispensed in columns 1-23 using a Thermo Multidrop Combi dispenser (Thermo Scientific). 0.1 μl of serially diluted compounds in DMSO are dispensed into columns 1-22 of the assay microplates with a Janus 384 MDT NanoHead (PerkinElmer). In wells of column 23, which serve as negative controls, no compounds are added.
The NSP14 reaction is started by adding 4 μl of a 4× substrate solution containing S-adenosyl methionine (SAM, 10 μM) and GpppA RNA (10 μM) prepared in 1×NSP14 reaction buffer. Any addition of reagents is followed by a 30 second centrifugation at 500×g to ensure that all liquid was collected at the bottom of the well. The final concentrations of NSP14, SAM, and GpppA RNA are 0.3 nM, 2.5 μM, and 2.5 μM, respectively. The final reaction volume is 16 μl. Plates are sealed and incubated for 45 min at 37° C.
For SAH detection, 1 μl 5× MTase-Glo™ Reagent (Promega) is added to each well, plates are mixed for 1-2 minutes and incubated at room temperature for 30 minutes. 5 μl of room-temperature MTase-Glo™ Detection Solution (Promega) is added to each well, plates are mixed for 1-2 minutes and incubated at room temperature for 30 minutes. Luminescence signals of each well are recorded in relative light units (RLUs) using a Biotek Synergy Neo plate reader (BioTek, Winooski, VT). The SAH production is normalized against the positive control (PK, column 24) and negative control (NK, column 23) as follows: normalized % inhibition=100×(RLUsample-RLUaverageNK)/(RLUaveragePK-RLUaverageNK).

What is called IC50 is the point on the concentration scale where inhibition reaches its midpoint.

Each structure is given as a SMILES string. Read-outs that look alike come from different tables or passages of the source.

`O=C(O)CCn1ncc2ccc(F)c(CNC(=O)c3cc(S(=O)(=O)c4cc(Cl)c5[nH]ncc5c4)c4n3CCC4)c21` [B.151]: the IC50 (37° C.) was less than 0.15 nM.
Consider `Cc1c(S(=O)(=O)c2ccc3[nH]ncc3c2)cc(C(=O)NCc2c(Cl)cccc2Cl)n1C` [B.84], for which the IC50 (37° C.) worked out at 0.18 nM.
On the same count and under the same terms, the figure for `Cc1c(S(=O)(=O)c2ccc3[nH]ncc3c2)cc(C(=O)NCc2cccc3nnn(C)c23)n1C` [B.34] is 0.2 nM; for `Cc1c(S(=O)(=O)c2ccc3[nH]ncc3c2)cc(C(=O)NCc2c[nH]c3ncccc23)n1C` [B.132] it is 0.6 nM; for `Cc1c(S(=O)(=O)c2ccc3[nH]ncc3c2)cc(C(=O)NC2CCc3cc(C#N)ccc32)n1C` (stereo not shown) [B.54] it is 2.3 nM.
The same measure, in the same setting: as for `Cc1c(S(=O)(=O)c2ccc(C(F)(F)F)cc2)cc(C(=O)NCc2cccc3cnn(C)c23)n1C` [B.6], the figure is 35 nM.
Consider `Cc1c(S(=O)(=O)c2cc(F)c3[nH]ncc3c2)cc(C(=O)N[C@@H]2CCN(c3ncc(F)cn3)C2)n1C` [A.40], for which the 50% inhibitory concentration (IC50) (45 min at 37° C.) was less than 0.15 nM.
Consider `Cc1c(S(=O)(=O)c2ccc3[nH]nc(F)c3c2)cc(C(=O)NCc2c(F)ccc3cnn(C4CC4)c23)n1C` [B.46], for which, where the note is “37° C.”, the half-inhibitory concentration (IC50) amounted to 0.53 nM.
Take `Cc1c(S(=O)(=O)c2cc(C#N)c3[nH]ncc3c2)cc(C(=O)NCc2cccc3cnn(C4CC4)c23)n1C` [B.106]: the IC50 (37° C.) worked out at 0.32 nM.
The same measure, in the same setting: the figure for `Cc1c(S(=O)(=O)c2ccc3[nH]ncc3c2)cc(C(=O)NCc2cncc3cnn(C)c23)n1C` [B.49] is 0.49 nM.
With `Cc1c(S(=O)(=O)c2ccc3[nH]ncc3c2)cc(C(=O)N[C@@H]2CCN(c3ccnnc3)C2)n1C` [A.78], under “45 min at 37° C.”, the IC50 worked out at 0.53 nM.
With `Cc1c(S(=O)(=O)c2ccc3[nH]ncc3c2)cc(C(=O)N[C@@H]2CCN(c3ccc(C#N)cc3)C2)n1C` [A.57], the IC50 (45 min at 37° C.) came to 0.57 nM.
On the same count and under the same terms, as for `Cc1c(S(=O)(=O)c2ccc3[nH]ncc3c2)cc(C(=O)N[C@@H]2CCN(c3ncc(F)cc3F)C2)n1C` [A.54], the figure is less than 0.15 nM; as for `Cc1c(S(=O)(=O)c2cc(Cl)c3[nH]ncc3c2)cc(C(=O)N[C@@H]2CCN(c3ccnnc3)C2)n1C` [A.119], 0.37 nM.
Same read-out and setting: the figure for `Cc1c(S(=O)(=O)c2ccc3[nH]ncc3c2)cc(C(=O)N[C@@H]2CCN(c3cc(C(F)(F)F)ncn3)C2)n1C` [A.94] is 0.15 nM.
Consider `Cc1c(S(=O)(=O)c2cc(F)c3[nH]ncc3c2)cc(C(=O)NCc2c(F)ccc3cnn(C4CC4)c23)n1CCO` [B.89], for which, for the setting “37° C.”, the IC50 worked out at 0.1 nM.
The same measure, in the same setting: as for `Cc1c(S(=O)(=O)c2ccc3[nH]ncc3c2)cc(C(=O)NCc2c(Cl)cc[nH]c2=O)n1C` [B.187], the figure is 0.61 nM.
Consider `Cc1c(S(=O)(=O)c2ccc3[nH]ncc3c2)cc(C(=O)NCc2cccc3c2CCC(=O)N3C)n1C` [B.25], for which the IC50 (37° C.) was less than 0.15 nM.
Same read-out and setting: as for `Cc1c(S(=O)(=O)c2ccc3[nH]ncc3c2)cc(C(=O)NCc2nccc3cnn(C4CC4)c23)n1C` [B.118], the figure is 0.48 nM.
Still for that read-out and setting: the figure for `Cc1c(S(=O)(=O)c2cc(F)c3[nH]ncc3c2)cc(C(=O)NCc2ccnn2C)n1C` [B.137] is 10 nM.
For `Cc1c(S(=O)(=O)c2ccc3[nH]ncc3c2)cc(C(=O)N[C@@H]2CCN(c3ccccc3C(F)(F)F)C2)n1C` [A.103], where the note is “45 min at 37° C.”, the IC50 is 5.1 nM.
Consider `Cc1c(S(=O)(=O)c2cc(C3CC3)c3[nH]ncc3c2)cc(C(=O)NCc2cccc3cnn(C4CC4)c23)n1C` [B.41], for which the IC50 (37° C.) amounted to 50 nM.
Take `Cc1c(S(=O)(=O)c2ccc3[nH]ncc3c2)cc(C(=O)NCc2c(F)ccc3nnn(C)c23)n1C` [B.43]: under “37° C.”, the IC50 was less than 0.15 nM.
Same read-out and setting: the figure for `Cc1c(S(=O)(=O)c2ccc3[nH]ncc3c2)cc(C(=O)NCc2c[nH]c(=O)c3cnccc23)n1C` [B.130] is less than 0.15 nM.
In the case of `Cc1c(S(=O)(=O)c2ccc3[nH]ncc3c2)cc(C(=O)N[C@@H]2CCN(c3cccc(C#N)c3C#N)C2)n1C` [A.109], the IC50 (45 min at 37° C.) was less than 0.15 nM.
For the molecule `Cc1c(S(=O)(=O)c2ccc(Cl)cc2)cc(C(=O)NCc2cccc3cnn(C)c23)n1C` [A.11], the IC50 (45 min at 37° C.) worked out at 5.3 nM.
Still for that read-out and setting: the figure for `Cc1c(S(=O)(=O)c2ccc3[nH]ncc3c2)cc(C(=O)N[C@@H]2CCN(c3cccc(C(F)(F)F)c3)C2)n1C` [A.100] is 2.9 nM.
Take `Cc1c(S(=O)(=O)c2ccc3[nH]ncc3c2)cc(C(=O)NCc2c(Cl)cnn2C)n1C` [B.142]: the IC50 (37° C.) came out at 1.4 nM.
With `Cc1c(S(=O)(=O)c2cc(F)c3[nH]nc(F)c3c2)cc(C(=O)N[C@@H]2CCN(c3ncc(F)cn3)C2)n1C` [A.67], the IC50 (45 min at 37° C.) was 0.38 nM.
As for `Cc1[nH]c(=O)c2ccccc2c1CNC(=O)c1cc(S(=O)(=O)c2ccc3[nH]nc(F)c3c2)c(C)n1C` [B.124], the IC50 (37° C.) amounted to 0.36 nM.
`Cc1c(S(=O)(=O)c2ccc3[nH]ncc3c2)cc(C(=O)N[C@@H]2CCN(c3cccc(C(F)F)c3)C2)n1C` [A.86]: the IC50 (45 min at 37° C.) came out at 2.5 nM.
On the same count and under the same terms, as for `Cc1c(S(=O)(=O)c2ccc3[nH]nc(F)c3c2)cc(C(=O)N[C@@H]2CCN(c3ccnnc3)C2)n1C` [A.112], the figure is 0.53 nM; as for `Cc1c(S(=O)(=O)c2ccc3[nH]ncc3c2)cc(C(=O)N[C@@H]2CCN(c3cc(F)cc(F)c3)C2)n1C` [A.96], 0.85 nM.
In the case of `Cc1c(S(=O)(=O)c2cc(F)c3[nH]ncc3c2)cc(C(=O)NCc2c(F)ccc3ncn(C4CC4)c23)n1C` [B.102], where the note is “37° C.”, the IC50 is less than 0.15 nM.
With `Cc1c(S(=O)(=O)c2ccc3[nH]ncc3c2)cc(C(=O)NCc2cccn3nccc23)n1C` [A.13], the half-inhibitory concentration (IC50) (45 min at 37° C.) was 7.2 nM.
In the case of `Cc1c(S(=O)(=O)c2ccc3[nH]ncc3c2)cc(C(=O)N[C@@H]2CCN(c3cncnc3)C2)n1C` [A.73], the IC50 (45 min at 37° C.) came out at 0.41 nM.
Regarding `Cc1c(S(=O)(=O)c2ccc3[nH]ncc3c2)cc(C(=O)NCC2(COc3ncc(F)cn3)CC2)n1C` [B.197], the IC50 (37° C.) is 2.7 nM.
As for `Cc1c(S(=O)(=O)c2ccc3[nH]ncc3c2)cc(C(=O)N[C@H]2CN(c3ccc(C#N)cn3)CC23CC3)n1C` [A.110], the IC50 (45 min at 37° C.) is 0.7 nM.
Turning to `Cc1c(S(=O)(=O)c2ccc3[nH]ncc3c2)cc(C(=O)NCc2ccccc2C#N)n1C` [B.101], the IC50 (37° C.) was 192 nM.
The same measure, in the same setting: as for `Cc1c(S(=O)(=O)c2ccc3[nH]ncc3c2)cc(C(=O)NCc2c(Cl)cnn2C)n1CC(F)(F)F` [B.185], the figure is 3.9 nM; as for `Cc1c(S(=O)(=O)c2ccc3[nH]ncc3c2)cc(C(=O)NCc2c(Cl)ccc(=O)n2C)n1C` [B.174], 0.7 nM.
Take `Cc1c(S(=O)(=O)c2ccc3occc3c2)cc(C(=O)NCc2cccc3cnn(C)c23)n1C` [A.8]: the IC50 (45 min at 37° C.) turned out to be 1.8 nM.
Still for that read-out and setting: as for `Cc1c(S(=O)(=O)c2ccc3[nH]ncc3c2)cc(C(=O)N[C@@H]2CCN(c3ccc(F)nn3)C2)n1C` [A.53], the figure is 0.36 nM.
The same measure, in the same setting: as for `COc1ccc(N2CC[C@@H](NC(=O)c3cc(S(=O)(=O)c4ccc5[nH]ncc5c4)c(C)n3C)C2)nn1` [A.88], the figure is less than 0.15 nM; as for `Cc1c(S(=O)(=O)c2cnc3c(cnn3C)c2)cc(C(=O)NCc2cccc3cnn(C)c23)n1C` [A.29], 160 nM.
With `Cc1c(S(=O)(=O)c2ccc3[nH]nc(F)c3c2)cc(C(=O)NCc2c(F)ccc3c2N(C)C(=O)C3(F)F)n1C` [B.105], the IC50 (37° C.) worked out at 0.15 nM.
For `Cc1c(S(=O)(=O)c2ccc3[nH]ncc3c2)cc(C(=O)N[C@@H]2CCN(c3ncc(Cl)cn3)C2)n1C` [A.42], the IC50 (45 min at 37° C.) was 0.42 nM.
Turning to `Cc1c(S(=O)(=O)c2cc(F)c3[nH]ncc3c2)cc(C(=O)NCc2cccc(CN3CCCC3)c2)n1C` [B.59], for the setting “37° C.”, the IC50 turned out to be 41 nM.
The same measure, in the same setting: as for `Cc1c(S(=O)(=O)c2ccc3[nH]ncc3c2)cc(C(=O)NCc2c(F)ccc(=O)n2C)n1C` [B.179], the figure is less than 0.15 nM.
Regarding `Cc1c(S(=O)(=O)c2ccc3[nH]ncc3c2)cc(C(=O)N[C@@H]2CCN(c3cccc4ccnn34)C2)n1C` [A.55], where the note is “45 min at 37° C.”, the IC50 stood at 0.9 nM.
`Cc1c(S(=O)(=O)c2ccc3[nH]ncc3c2)cc(C(=O)NC2CCN(c3ncc(F)cn3)CC2)n1C` [A.35]: for the setting “45 min at 37° C.”, the IC50 was determined as 0.56 nM.
For the molecule `Cc1c(S(=O)(=O)c2ccc3[nH]ncc3c2)cc(C(=O)NCc2ccnn2C2CC2)n1C` [B.167], the IC50 (37° C.) was determined as 7.8 nM.
For the molecule `Cc1c(S(=O)(=O)c2ccc3[nH]ncc3c2)cc(C(=O)N[C@@H]2CCN(c3cccc(F)c3)C2)n1C` [A.87], under “45 min at 37° C.”, the IC50 was 0.75 nM.
Still for that read-out and setting: as for `COc1ccccc1CNC(=O)c1cc(S(=O)(=O)c2ccc3c(cnn3C)c2)c(C)n1C` [A.23], the figure is 68 nM; as for `Cc1c(S(=O)(=O)c2cc(Cl)c3[nH]ncc3c2)cc(C(=O)N[C@@H]2CCN(c3ccc(C#N)cn3)C2)n1C` [A.106], less than 0.15 nM.
Turning to `Cc1c(S(=O)(=O)c2ccc3[nH]ncc3c2)cc(C(=O)NCc2cccn3ncnc23)n1C` [B.148], the 50% inhibitory concentration (IC50) (37° C.) stood at 7.4 nM.
The same measure, in the same setting: as for `Cc1c(S(=O)(=O)c2ccc3[nH]ncc3c2)cc(C(=O)NCc2ccc(N(C)C)nn2)n1C` [B.73], the figure is 116 nM.
In the case of `Cc1nc(N2CC[C@@H](NC(=O)c3cc(S(=O)(=O)c4ccc5[nH]ncc5c4)c(C)n3C)C2)nc(C)c1F` [A.75], the IC50 (45 min at 37° C.) came out at 0.51 nM.
